# Values quoted from earlier work in patent US20110030103A1, “LIPOPEPTIDES AND LIPOPEPTIDE SYNTHETASES” (priority 2007, published 2011).
# *1 amine or outer side, *2 acyl side, *3 side chain or, on linkers, in order; H or OH if unused. Where a SMILES comes first, the peptide text is derived from it. Bridges are numbered along the chain shown (N, C = ends). [ ]: non-standard residue; d: D form. X1 = CC(C)CCCCCCCCC[C@H](CC(=O)[*:1])O[*:2]
# System: bacteria, including both Gram-negative and Gram-positive bacteria
# Details: minimal antibacterial effects; background statement
smiles,measurement,value
CC(C)CCCCCCCCC[C@@H]1CC(=O)N[C@@H](CCC(=O)O)C(=O)N[C@@H](CC(C)C)C(=O)N[C@H](CC(C)C)C(=O)N[C@@H](C(C)C)C(=O)N[C@@H](CC(=O)O)C(=O)N[C@H](CC(C)C)C(=O)N[C@@H](CC(C)C)C(=O)O1 [surfactin] (EL[dL]VD[dL]L; linker N-C via X1),minimum inhibitory concentration (MIC),12 to 50 µg/mL
